Source: patent US9932300B2, “N,N′-diarylurea compounds and N,N′-diarylthiourea compounds as inhibitors of translation initiation” (President and Fellows of Harvard College, priority 2009, dated 2018)

Tested on: eIF2-GTP-Met-tRNAi ternary complex
Experiment: Ternary complex assay (dual luciferase, firefly/renilla ratio) in stable KLN-tTA/pBISA-DL(ATF-4) cells; HTS and hit confirmation
Type: cell-based, mouse
Set-up: Activity 10 uM / Activity 2.5 uM / Activity 5 uM: unit not given here
Settings: confirmed hits of the screen (Table 5); for Activity 5 uM: compound at 5 uM; for Activity 10 uM: compound at 10 uM; for Activity 2.5 uM: compound at 2.5 uM
From the text: For assay development, a bi-directional plasmid was designed in which a common promoter/enhancer complex drives the transcription of firefly luciferase (F-luc) ORF fused to the 5′ untranslated region (UTR) of ATF-4, and of the renilla luciferase (R-luc) ORF fused to a 90-nucleotide 5′ UTR derived from the plasmid (FIG. 6A). Because the tetracycline-regulated transactivator ((tTA), required for driving transcription from this vector) is not normally expressed in the mammalian cells, stable KLN cancer cells were constructed that expressed tTA (KLN-tTA).
The KLN-tTA colonies that drove expression of reporter genes from pBISA-DL plasmid were selected by transient transfection and dual luciferase assay. One of these KLN-tTA cell lines was transfected with the pBISA-DL^(ATF-4) expression vector, stable colonies were selected by dual luciferase assay and expanded. To determine if reduced availability of the eIF2*GTP*Met-tRNAi ternary complex increased the translation of firefly luciferase and decreased translation of renilla luciferase, selected KLN-tTA/pBISA-DL^(AFT-4) colonies were treated with thapsigargin (TG) or tunicamycin (TU), two agents known to cause phosphorylation of eIF2α.
This assay was then adapted for high throughput screening in 96 and 384 well plates. This was done by evaluating the cell density, length of exposure to compounds, DMSO tolerance and optimum firefly and renilla substrate. We then challenged these cells with thapsigargin or DMSO. […] Cell-based assays usually have higher variation than homogeneous in vitro assays due to position effect in the plate, and other variables associated with handling of cells and the plates.
Screening was conducted in 384 well white opaque plates (Nalge Nunc), 100 μl volume RPMI+10% fetal bovine serum. Cells were plated at the sub-confluent density of 10,000 cells/well, and allowed to attach for a period of 16-18 hours at 37° C., 5% CO2. Compounds were added as 1 μl of a 1 mM DMSO stock solution for a final screening concentration of 10 μM, using low-volume tips for transfer (Molecular Bioproducts). Cells were then incubated in the presence of compound for an additional sixteen hours, again at 37° C., 5% CO2. Following incubation 70 μl of the culture medium was removed from each well to allow for reagent addition and plates were allowed to equilibrate to room temperature for thirty minutes. Firefly luciferase reporter activity was then read by the addition of thirty microliters of Dual Glo Luciferase reagent (Promega), followed by one hour incubation at room temperature to allow for adequate signal buildup. Luminescence counting was conducted on a Microbeta Trilux using a 1 second read time. Renilla luciferase reporter activity was measured following addition of 30 μl Stop and Glo Luciferase reagent (Promega) and incubation identical to the one carried out for the firefly luciferase one.
Compound scores were interpreted as firefly luciferase activity divided by renilla luciferase activity, normalized to the plate's DMSO control. […] All data analysis was conducted using the BioAssay HTS software package (CambridgeSoft).
102,709 compounds in the NCI Open Chemical Repository were then screened using this HTS assay. […] Initial hits were confirmed by repeating the same dual luciferase assay in 96 well plates. Briefly, 20,000 cells/well were plated in triplicate for each concentration (10, 5 and 2.5 μM) of the compounds.

O=C(C[Si](CC(=O)c1cccc(C(F)(F)F)c1)CC(=O)c1cccc(C(F)(F)F)c1)c1cccc(C(F)(F)F)c1 [Compound 55879]
Activity 5 uM: 1.7
Activity 10 uM: 3.8

Cc1cc(C(O)(c2ccc(N)cc2)c2ccc(N)cc2)ccc1N.Nc1ccc(C(O)(c2ccc(N)cc2)c2ccc(N)cc2)cc1 [Compound 56345]
Activity 5 uM: 3.4
Activity 10 uM: 3.64

CCN(CCO)c1ccc(N=Nc2ccc([N+](=O)[O-])cc2)cc1 [Compound 57019]
Activity 5 uM: 5.388
Activity 10 uM: 5.441

CCN(CC)c1ccc(C(O)C2=CC(=O)c3ccccc3C2=O)cc1 (stereo not shown) [Compound 58338]
Activity 5 uM: 11.604
Activity 10 uM: 17.599

COc1ccc(/C=C/c2ccc3ccccc3n2)cc1O.Cl [Compound 59070]
Activity 5 uM: 6.227
Activity 10 uM: 7.423

C[C@]12CC[C@H]3[C@@H](CCC4=CC(=O)CC[C@@H]43)[C@@H]1CC[C@@]2(O)C#CC#C[C@]1(O)CC[C@H]2[C@@H]3CCC4=CC(=O)CC[C@@H]4[C@H]3CC[C@@]21C [Compound 59465]
Activity 5 uM: 1.8
Activity 10 uM: 6.8

CCCCCCCC[N+](C)(CCCCCCCC)CCCCCCCC.[Cl-] [Compound 61369]
Activity 5 uM: 3
Activity 10 uM: 4.4

O=c1cc(-c2ccc3ccccc3n2)oc2ccc(Cl)cc12 [Compound 61626]
Activity 5 uM: 2.793
Activity 10 uM: 3.1685

CN(C)c1ccc(C=Cc2ccnc3ccccc23)cc1.Cl [Compound 63346]
Activity 5 uM: 6.234
Activity 10 uM: 6.8235

[Cl][Hg][Cl].c1cnccn1 [Compound 65429]
Activity 2.5 uM: 3.49

S=P(Sc1ccccc1)(Sc1ccccc1)Sc1ccccc1 [Compound 65486]
Activity 5 uM: 17.496
Activity 10 uM: 20.8755

c1cc[c]([Hg][O]c2cccc3cccnc23)cc1 [Compound 66326]
Activity 10 uM: 5.2

Cc1ccc(N=P2(Nc3ccc(C)cc3)N=P(Nc3ccc(C)cc3)(N3CC3)NP(=Nc3ccc(C)cc3)(N3CC3)N2)cc1 (stereo not shown) [Compound 67112]
Activity 5 uM: 3.1
Activity 10 uM: 16.3

Cc1cc(N(CCCl)CCCl)ccc1N=Nc1ccccc1C(=O)[O-].Cc1cc(N(CCCl)CCCl)ccc1N=Nc1ccccc1C(=O)[O-].[Cu+2] [Compound 68292]
Activity 5 uM: 7.2
Activity 10 uM: 18.3

CCCCCCCCCCCC(c1ccccc1)[N+](C)(C)Cc1ccccc1.[Cl-] (stereo not shown) [Compound 69510]
Activity 5 uM: 5.6
Activity 10 uM: 10.9

O=C1C(Cl)=C(Cl)C(=O)N1c1cccc2c(N3C(=O)C(Cl)=C(Cl)C3=O)cccc12 [Compound 69580]
Activity 5 uM: 3.5
Activity 10 uM: 6.4

O=C(Nc1cccc(Cl)c1)Nc1cccc(Cl)c1 [Compound 69625]
Activity 5 uM: 6.201
Activity 10 uM: 4.8565

O=C(CCl)N1c2ccccc2Sc2ccccc21 [Compound 71676]
Activity 5 uM: 2.922
Activity 10 uM: 4.1015

Clc1cccc2ccc(-c3cc4ccccc4s3)nc12 [Compound 71689]
Activity 5 uM: 5.724
Activity 10 uM: 7.139

c1csc(-c2ccc3ccccc3n2)c1 [Compound 71690]
Activity 5 uM: 2.889
Activity 10 uM: 3.4315

O=C(/C=C/c1ccccc1)OC1CCCCC1 [Compound 71968]
Activity 5 uM: 2.615
Activity 10 uM: 3.5615

O=C(Nc1ccc(Cl)cc1)Nc1ccc(Cl)c(Cl)c1 [Compound 72005]
Activity 5 uM: 11.25
Activity 10 uM: 16.9235

O=C(OCCc1ccccc1)c1ccccc1O [Compound 72035]
Activity 5 uM: 3.275
Activity 10 uM: 3.8265

CCOC(=O)c1cnc(SCc2ccccc2)nc1N [Compound 72266]
Activity 5 uM: 2.946
Activity 10 uM: 3.233

COc1cc(NC(=O)c2cc3ccccc3cc2O)c(OC)cc1Cl [Compound 73118]
Activity 5 uM: 8.006
Activity 10 uM: 10.008

CCCCCCCCCCCCCCCCCC[N+](C)(C)C.Cc1ccc(S(=O)(=O)[O-])cc1 [Compound 74566]
Activity 5 uM: 1.7
Activity 10 uM: 3.7

CCCCCCCCCCCCCCCCCC[N+](C)(C)C.O=S(=O)([O-])c1ccccc1 [Compound 74568]
Activity 5 uM: 2.1
Activity 10 uM: 4.8

C(=P(c1ccccc1)(c1ccccc1)c1ccccc1)[P+](c1ccccc1)(c1ccccc1)c1ccccc1.[Br-] [Compound 74740]
Activity 5 uM: 5.6
Activity 10 uM: 4.1

Cl.NC(N)=N/N=C/N/N=C/c1ccccc1O [Compound 75971]
Activity 5 uM: 3.111
Activity 10 uM: 3.3355

CC(=O)[O][Sn]([c]1ccccc1)([c]1ccccc1)[c]1ccccc1 [Compound 76068]
Activity 2.5 uM: 1.02
Activity 10 uM: 3.68

Oc1ccccc1/C=N/NC(=S)Nc1ccc2cn[nH]c2c1 [Compound 76429]
Activity 5 uM: 4.409
Activity 10 uM: 5.2405

ClCCN(CCCl)c1ccc(C2=Nc3cccc4cccc(c34)N2)cc1 [Compound 78577]
Activity 2.5 uM: 0.74
Activity 10 uM: 3.56

CCCCCCCCCCCC[n+]1ccc(C)cc1C.Cc1ccc(S(=O)(=O)[O-])cc1 [Compound 78949]
Activity 5 uM: 4.1
Activity 10 uM: 7.7

O=Nc1c2cc3ccccc3[nH]c-2c2ccccc12 [Compound 81523]
Activity 5 uM: 7.526
Activity 10 uM: 8.879

Clc1ccc(/C=N\N2CCCCCC2)cc1 [Compound 82278]
Activity 5 uM: 3.288
Activity 10 uM: 3.1525

CCCCCCCCCCCCCC[n+]1ccccc1.[Cl-] [Compound 82910]
Activity 5 uM: 7.654
Activity 10 uM: 12.4425

CCN(CC)c1ccc(/C=C2\C=Cc3ccccc32)cc1 [Compound 83089]
Activity 5 uM: 10.155
Activity 10 uM: 5.1265

O=[N+]([O-])c1ccc(N=Nc2c(Cl)cc(O)cc2Cl)cc1 [Compound 83318]
Activity 5 uM: 12.03
Activity 10 uM: 14.6225

CNc1c(F)cc(N=Nc2ccccc2)cc1F [Compound 83335]
Activity 2.5 uM: 2.77
Activity 10 uM: 3.31

CCCCCCCCCCCC[N+](C)(C)C.[O-]c1c(Cl)c(Cl)c(Cl)c(Cl)c1Cl [Compound 85573]
Activity 5 uM: 2.1
Activity 10 uM: 3.1

CC(=O)c1cccc(N=NNc2cccc(C(C)=O)c2)c1 [Compound 85646]
Activity 5 uM: 3.127
Activity 10 uM: 4.18

C1=Cc2ccccc2/C1=C/c1ccc2c(c1)OCO2 [Compound 86430]
Activity 5 uM: 4.871
Activity 10 uM: 6.063

COc1ccc(NNc2ccc(OC)cc2)cc1 [Compound 86489]
Activity 2.5 uM: 2.73
Activity 10 uM: 3.17

Cc1ccc(NN(C)c2ccc(C)cc2)cc1 [Compound 86537]
Activity 2.5 uM: 3.85
Activity 10 uM: 7.51

Cc1ccc(NNc2ccc(C)cc2)cc1 [Compound 86544]
Activity 5 uM: 3.954
Activity 10 uM: 4.845

O=c1[nH]cnc2nc(-c3ccc(N(CCCl)CCCl)cc3)[nH]c12 [Compound 87086]
Activity 5 uM: 6.572
Activity 10 uM: 5.461

Br.CCC1=C(C)/C(=C/c2[nH]c(C)c(CC)c2C)N=C1C [Compound 87240]
Activity 2.5 uM: 1.45
Activity 10 uM: 37.28

CN(C)c1ccc(N=Nc2ccc3ncccc3c2)cc1 [Compound 87323]
Activity 5 uM: 5.277
Activity 10 uM: 6.0905
